Test results published in PubChem BioAssay AID2124 (Sanford-Burnham Center for Chemical Genomics, 2009).
Records with an inconclusive call do not appear. Activity calls are given as the source filed them. The rule behind the calls is not given here; tested in MIN6 cells.

Assay: cell-permeable autofluorescent compounds in GFP channel, dose response, artefact control, imaging, high-content imaging (AID 2124);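 note: cells exposed to compound for 48 hours before fixing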
Conditions: cells, GFP-channel autofluorescence, high-content imaging, at 10 µM; for z-score: stronger effect = higher value

SMILES | z-score | cell count [cells]
Nc1nc(-c2ccc(Cl)cc2)c(N=Nc2ccc(S(=O)(=O)N3CCOCC3)cc2)s1 | -0.32 (inactive) | 2990
CCN(CC)c1ccc(/C=C2/SC(=O)N(C(C)C)C2=O)o1 | 0.73 | 596
CC1CN(C(=O)CCn2c(=O)oc3ccccc32)CC(C)O1 (stereo not given) | -0.39 (inactive) | 3070
CCCN1C(=O)c2cccc3c(N4CCCCC4)ccc(c23)C1=O | 0.28 | 3300
C=CCNC(=O)C1CC2Cn3c(nc4cc5ccccc5cc43)C2N1C (stereo not given) | -0.39 (inactive) | 3390
COCCCNc1c2c3c(cccc3[nH]c1=O)C(=O)c1ccccc1-2 | 1.79 | 2800
N#C/C(=C/c1ccc(N2CCOCC2)o1)c1nc2ccccc2[nH]1 | 0.11 | 2960
N#C/C(=C/c1ccc(N2CCOCC2)o1)c1ccc(Br)cc1 | 0.24 | 555
O=C(N=C1SCC(=O)N1c1ccccc1Cl)c1ccccc1 | -0.31 (inactive) | 3110
CCOc1cc(N(CC)CC)ccc1/C=C(/C#N)c1nc2ccccc2[nH]1 | 1.08 | 1870
Cn1ncc2c1ncn1nc(CCc3ccccc3)nc21 | -0.33 (inactive) | 2710
NS(=O)(=O)c1cccc2cccnc12 | -0.33 (inactive) | 3060
Cc1ccc(C)c(NC(=O)C(C)CC2COCCO2)c1 (stereo not given) | -0.38 (inactive) | 3230
Oc1c(/C=C/C=C/C=Nc2ccccc2)sc(=S)n1Cc1ccccc1 | -0.33 (inactive) | 2740
O=C(NCCN1CCCC1)C1(S(=O)(=O)c2ccc(Cl)cc2)CC1 | -0.33 (inactive) | 2860
COc1c2c(nc3ccccc13)OC(C(C)(O)COC(C)=O)C2 (stereo not given) | -0.33 (inactive) | 2830
CC1CCCC(C2(O)C(=O)Nc3ccccc32)C1=O (stereo not given) | -0.33 (inactive) | 3180
CCN(CC)CCN1C(=O)c2oc3ccccc3c(=O)c2C1c1ccccc1 (stereo not given) | -0.33 (inactive) | 3330
CCN(CC)c1ccc(/C=N/c2sc3c(c2C#N)C2CCN3CC2)c(O)c1 | 1.45 | 2490
COc1cc(OC)cc(C(=O)Nc2cccc(C(C)=O)c2)c1 | -0.39 (inactive) | 3260
CCOc1ccc(OCC)c(-c2c(=O)n(OCc3ccc(Cl)cc3)c3ccccc3[n+]2[O-])c1 | -0.38 (inactive) | 2760
CN(C)/C=C1/Nc2ccccc2C1=O | -0.36 (inactive) | 3060
Cc1cc2nc3c(=O)n(Cc4ccccc4)c(=O)[nH]c3nc2cc1N | -0.33 (inactive) | 2710
O=[N+]([O-])c1ccc(N(c2ccccc2)c2ccccc2)cc1 | -0.32 (inactive) | 2510
CC(C)(CNS(=O)(=O)c1ccc(Cl)cc1)N1CCCCC1 | -0.34 (inactive) | 3730
N#C/C(=C/c1ccc(N2CCCCC2)o1)C(=O)Nc1ccc(Cl)cc1 | 3 | 2990
COc1ccc(C)cc1NC(=O)CC(NC(C)=O)c1ccccc1 (stereo not given) | -0.33 (inactive) | 3060

SMILES | z-score | cell count [cells]
Cc1ccc(N=C2NC(=O)/C(=C/c3cn(C)c4ccccc34)S2)cc1C | -0.23 (inactive) | 2580
COc1ccccc1N1CCN(C/C(O)=C(\C#N)c2nc(-c3ccccc3)cs2)CC1 | -0.38 (inactive) | 3090
CCN(CC)CCn1c(=S)[nH]c2ccc(Cl)cc2c1=O | -0.33 (inactive) | 2890
CN1/C(=C/C=C(C#N)C#N)C=Cc2ccccc21 | -0.35 (inactive) | 2500
CC1CCCCC1NC(=O)COC(=O)c1c2c(nc3ccccc13)/C(=C/c1ccco1)CC2 (stereo not given) | -0.35 (inactive) | 2820
Cc1ccc(S(=O)(=O)Nc2ccc(=O)n(Cc3ccc(Cl)c(Cl)c3)c2)cc1 | -0.33 (inactive) | 3230
Cc1cc(C)c2nc(NNC(=O)c3cc(-c4cccs4)nc4ccccc34)sc2c1 | -0.33 (inactive) | 2740
CCC(=O)Nc1ccc2c(c1)ncn2-c1ccccc1 | -0.34 (inactive) | 3260
Nc1cc2nc3ccccc3nc2cc1N | -0.37 (inactive) | 1390
O=C(NCc1ccc(F)cc1)C1CCCN(S(=O)(=O)c2cccnc2)C1 (stereo not given) | -0.33 (inactive) | 3070
S=c1[nH]nc(-c2ccccc2)n1CC1CCCO1 (stereo not given) | -0.33 (inactive) | 3250
Cc1ccc(-c2ccc(/C=C(\C#N)C(=O)Nc3cc(C)nn3-c3ccccc3)o2)cc1 | 1.66 | 2460
CN(CCCNC(=O)CN1C(=O)CC(C)(C)S(=O)(=O)c2ccccc21)C1CCCCC1 | -0.33 (inactive) | 3030
CN(C)C(=O)C12CCC(C)(c3nc4ccccc4nc31)C2(C)C (stereo not given) | -0.38 (inactive) | 3350
O=C(NC1C=CS(=O)(=O)C1)c1sc2ccccc2c1Cl (stereo not given) | -0.38 (inactive) | 2120
O=C(c1cc([N+](=O)[O-])ccc1N1CCCC1)N1CCCC1 | -0.38 (inactive) | 3210
Nc1cccc2c1C(=O)N(C(=O)c1cccc(S(=O)(=O)N3CCCC3)c1)C2=O | -0.39 (inactive) | 3320
CC1CCCC(C)N1C(=O)CSc1nnc(-c2cccs2)o1 (stereo not given) | -0.33 (inactive) | 2440
CC(C)NC(=O)NC(=O)COC(=O)c1cccc(S(=O)(=O)N2CCCCC2)c1 | -0.39 (inactive) | 3040
O=C(CC12CC3CC(CC(C3)C1)C2)NCC(=O)N1CCc2ccccc2C1 | -0.33 (inactive) | 2920
CCc1cc2c(CN3CCN(CCO)CC3)cc(=O)oc2cc1O | -0.38 (inactive) | 3140
COc1ccc(-c2ccc3c(N)c(C(=O)c4cccc(OC)c4)sc3n2)cc1 | -0.24 (inactive) | 2850
N#CC1CC(c2ccc([N+](=O)[O-])cc2)=NN1c1ccc([N+](=O)[O-])cc1 (stereo not given) | -0.25 (inactive) | 3490
Cc1csc(NC(=O)CN(C)S(=O)(=O)c2cccc3cccnc23)n1 | -0.33 (inactive) | 3250
CCN1C(=O)CSc2ccc(C(=O)NCc3ccccc3OC)cc21 | -0.33 (inactive) | 2980
COC(=O)c1c[nH]n2c(=O)c(Cc3ccc(F)cc3Cl)c(C)nc12 | -0.33 (inactive) | 3100
Cc1ccc(-c2cc(-c3ccco3)c3c(N)c(C(=O)NN)oc3n2)cc1 | -0.32 (inactive) | 2700

SMILES | z-score | cell count [cells]
CC1CCN(C(=O)CNS(=O)(=O)c2ccc(Br)s2)CC1 | -0.33 (inactive) | 3290
CCOc1ccc(OCCCCn2ccnc2)cc1 | -0.39 (inactive) | 2900
Cc1ccc(C(=O)NCCCn2ccnc2)cc1[N+](=O)[O-] | -0.39 (inactive) | 3010
CN(C)c1nc(N)nc(/C(C#N)=C/C2CC3C=CC2C3)n1 (stereo not given) | -0.33 (inactive) | 2780
CC1=Nc2ccccc2/C1=C/c1sc(=S)n(-c2cccc(C(=O)O)c2)c1O | -0.37 (inactive) | 3380
Cc1cc(SCCOc2ccccc2)nc(N)n1 | -0.39 (inactive) | 3470
CCOC(=O)CC1C(=O)NCCN1c1nc2ccc(C)cn2c(=O)c1/C=C1\SC(=S)N(CC(C)C)C1=O (stereo not given) | 0.66 | 3220
COc1ccc(NC(=O)c2sc3nc(-c4cccnc4)ccc3c2N)cc1 | -0.3 (inactive) | 2880
COc1ccccc1NC(=O)/C=C1\SCC(=O)N1C | -0.25 (inactive) | 3000
CCn1cc(C(=O)NCCN(C)CCc2ccccc2)c(=O)c2cc(S(=O)(=O)N(C)C)ccc21 | -0.33 (inactive) | 3360
Cc1ccc2nc(/C(C#N)=C\c3ccc(N4CCOCC4)o3)[nH]c2c1 | 0.7 | 2680
CCCNC(=O)N1CCC(C(=O)c2ccc(Cl)cc2)CC1 | -0.38 (inactive) | 2970
N#C/C(=C\C1=C(N2CCOCC2)C(=C/c2cccc([N+](=O)[O-])c2)/CC1)C(=O)Nc1ccccc1F | -0.32 (inactive) | 2940
O=C1/C(=C/c2ccc(N3CCOCC3)o2)SC(=Nc2ccccc2)N1CCc1c[nH]c2ccccc12 | 2.67 | 192
O=C1N/C(=N/Nc2ccccc2)S/C1=C\c1ccccc1 | -0.26 (inactive) | 3090
COc1cc(N2CCCC2)c(OC)cc1/C=C1/NC(=S)NC1=O | 0.59 | 2940
CCOC(=O)CN1CC23C=CC(O2)C(C(=O)Nc2cc(OC)ccc2OC)C3C1=O (stereo not given) | -0.38 (inactive) | 3210
Cc1n[nH]c(C)c1N1C(=O)c2cccc3c(N4CCCCCC4)ccc(c23)C1=O | 0.33 | 2690
Oc1ccc(Cl)cc1C1=Nc2ccccc2N=C(c2ccco2)C1 | -0.35 (inactive) | 2660
O=C(C1=C[C@H](C2CC2)C[C@H](OCCCCO)O1)N1CCN(Cc2ccccc2)CC1 | -0.38 (inactive) | 2880
Nc1ccc(-c2nc3nc(N)nc(N)c3nc2-c2ccc(N)cc2)cc1 | -0.32 (inactive) | 2980
Cc1cc(/C=C2\NC(=S)N(C)C2=O)ccc1N1CCCC1 | 0.07 | 2980
CNC(=O)c1ccc(-c2sc3nc(N4CCOCC4)c4c(c3c2N)CC(C)(C)OC4)o1 | -0.33 (inactive) | 2290
CCCCNc1ccc2c3c(cccc13)C(=O)N(CCCC)C2=O | 3.41 | 2720
Nc1c(C(=O)c2ccc(Cl)cc2)sc2nsc(SCCN3CCOCC3)c12 | 0.31 | 2540
COc1ccc(Cl)cc1NC(=O)c1c(-c2ccccc2)noc1C | -0.39 (inactive) | 3300
